The results in this text go back to article PMC5082338, “Different Culture Metabolites of the Red Sea Fungus Fusarium equiseti Optimize the Inhibition of Hepatitis C Virus NS3/4A Protease (HCV PR)” (Marine Drugs, 2016).

Values joined by “and” are separate entries in the source; they are usually repeats but may differ in a detail not shown here. Identical values can stand only once. Like-named read-outs stand apart in the source and are kept apart here. Peptide text beside a SMILES is read from it.

For assay [1], the target named is HCV NS3/4A protease (Hepatitis C virus genotype 1b (strain HC-J4), UniProt O92972). Kind of assay: HCV protease inhibitory activity (SensoLyte 520 HCV protease assay kit, fluorimetric). The conditions noted are these: for Inhibition of HCV PR (in words): compared to other constituents; for IC50: recHCV PR, 37 °C, 30 min. Format: biochemical. The text has this: HCV NS3 is considered as a serine protease, its active site contains serine 139 amino acid residues, which attack the substrate by forming a reversible covalent bond with its amino acid residues. To be activated, the HCV NS3 has to be coupled with an activating protein named (4A), and is therefore given the name HCV NS3/4A, which is active only in its heterodimer form. The culture extracts of the endophytic fungus F. equiseti and their isolated compounds were screened for inhibition of HCV protease using the hepatitis virus C NS3 protease inhibitor 2 as a positive control. Moreover, the selectivity of the active metabolites toward HCV NS3/4A protease (viral protease) and not human serine proteases such as trypsin and chymotrypsin has been confirmed through investigating the inhibitory activity of these extracts and/or their isolated chemical constituents on human recombinant Trypsin.
Sequence of HCV NS3/4A protease (O92972 1027-1207, other chains not shown): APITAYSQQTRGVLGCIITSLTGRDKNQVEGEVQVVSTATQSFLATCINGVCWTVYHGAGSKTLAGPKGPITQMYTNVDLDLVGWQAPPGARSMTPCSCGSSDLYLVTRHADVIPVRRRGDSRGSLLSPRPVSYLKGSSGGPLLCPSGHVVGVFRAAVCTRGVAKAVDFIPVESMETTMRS
(§1) Sensolyte™ 520 HCV Protease assay kit Fluorimetric (cat#AS-71145), HCV NS3/4A protease and Sensolyte™, Green protease Assay Kit Fluorimetric (cat#AS-71124), and Hepatitis Virus C NS3 protease inhibitor 2 (cat#AS-25346) were purchased from AnaSpec Inc., San Jose, CA, USA. Chymotrypsin inhibitor (Soybean trypsin) was purchased from Sigma Aldrich Co. (St. Louis, MO, USA), and Becton Dickinson Falcon™ (Tokyo, Japan). Microtest 384-well 120 μL black assay plates, no lid, non-sterile, were purchased from Becton Dickinson Inc, Franklin Lakes, NJ, USA. Culture media: Czapek agar, bacteriological peptone, malt extract, yeast extract powder, nutrient agar and potato dextrose broth were procured from Lab M, Bury, UK; Glucose, (Acros Organics, Geel, Belgium), K2HPO4 (Laboratory Reagent, Mumbai, India), MgSO4 (Oxford Laboratory Reagent, Mumbai, India), agar (Sisco Research Laboratories Pvt. Ltd., Mumbai, India).
Samples of 2 μL of culture broth fungus extracts and isolated compounds dissolved in dimethyl sulfoxide (DMSO) were placed in each well of a 384-well microplate, then 8 μL of recHCV PR (0.5 μg/mL) were added, and the plate was briefly agitated. Finally, 10 μL of the freshly prepared substrate [Ac-Asp-Glu-Dap (QXLTM520)-Glu-Glu-Abu-COO-Ala-Ser-Cys(5-FAMsp)-NH2] were added with sequential rotational shaking. The reaction mixture was incubated at 37 °C for 30 min. The fluorimetric analyses were performed on an automated TECAN GENios plate reader (Männedorf, Switzerland) with excitation and emission wavelengths at 485 and 520 nm, respectively. Each sample was tested in triplicate. HCV PR inhibition (%) was calculated using the following equation: % Inhibition = (Fsubstrate − Ftestsample) × 100/Fsubstrate where Fsubstrate is the fluorescence of the enzyme and substrate only, and Ftestsample is the fluorescence of the assay mixture with the added sample.

In assay [2] the test system is Staphylococcus aureus. Kind of assay: Antimicrobial activity, inhibition zone. Format: cell-based. Conditions: for zone of inhibition: read-out: Inhibition zone, Staphylococcus aureus. The text has this: Table 1 Antimicrobial potential of the culture extracts and isolated compounds from F. equiseti. | column: Gram-Positive Bacteria / Staphylococcus aureus
For assay [3], the system named is Bacillus megaterium. Kind of assay: Antimicrobial activity, inhibition zone. It counts as cell-based. The conditions noted are these: Priestia megaterium; for zone of inhibition: read-out: Inhibition zone, Bacillus megaterium. From the text:
Table 1 Antimicrobial potential of the culture extracts and isolated compounds from F. equiseti. | column: Gram-Positive Bacteria / Bacillus megaterium

The test system of assay [4] is Bacillus subtilis. Briefly: Antimicrobial activity, inhibition zone. Format: cell-based.
For assay [5], the system named is Candida albicans. Kind of assay: Antimicrobial activity, inhibition zone. It counts as cell-based. The conditions noted are these: oxytetracycline control 30 μg.
The target in assay [6] is T1, human recombinant Trypsin (Homo sapiens, UniProt P07477).
T1 construct: purchased AnaSpec Inc., San Jose, CA, USA AS-71124 (Green protease Assay Kit; no catalogue number for trypsin itself)
Briefly: Green protease assay (trypsin inhibitory activity). Format: biochemical. The conditions noted are these: 37 °C, 30 min. How it is done: as §1, with “Chymotrypsin” for “Sensolyte™ 520 HCV Protease assay kit Fluorimetric (cat#AS-71145), HCV NS3/4A protease and Sensolyte™, Green protease Assay Kit Fluorimetric (cat#AS-71124), and Hepatitis Virus C NS3 protease inhibitor 2 (cat#AS-25346) were purchased from AnaSpec Inc., San Jose, CA, USA. Chymotrypsin”
Then 17.5 μL of assay buffer and 2.5 μL of trypsin (0.1 U/μL) were added and the plate was briefly agitated. […] The positive control was the soybean trypsin-chymotrypsin inhibitor. Inhibition was calculated as above for HCV PR assay.

Where [7] appears, read: read-out: IC50 HCV Protease Inhibitory Activity.
Where [8] appears, read: Bacillus subtilis, oxytetracycline control 30 μg.

As to `CC(C)[C@@H](C)CC[C@@H](C)C1CCC2C3=CC=C4C[C@@H](O)CC[C@]4(C)C3CC[C@@]21C` (stereo partly drawn) [compound 8, ergostra-5,7-dien-3β-ol], the “Inhibition of HCV PR (in words)” value in assay [1] is “inactive”. In addition, the IC50 in assay [1] (setting [7]) worked out at 77.1 ± 4.55 µM.

Take `Cc1c[nH]c(=O)[nH]c1=O` [compound 4, thymine]: the “Inhibition of HCV PR (in words)” value in assay [1] was “inactive”. Further, in assay [1] (setting [7]), the IC50 amounted to 51.8 ± 2.49 µM.

As for `O=C1c2cc(O)cc(O)c2C(=O)c2c(O)cc(CO)cc21` [compound 14, ω-hydroxyemodin], the zone of inhibition in assay [2] (oxytetracycline control 30 μg) was found to be 12 mm; in assay [3] (oxytetracycline control 30 μg), 17 mm; in assay [4] (setting [8]), 9 mm; in assay [5], 18 mm. Besides, the IC50 came out at 10.7 µM in assay [1] (setting [7]) and 48.5 µM in assay [6].

For the molecule `Cc1cc(O)c2c(c1)C(=O)c1cccc(O)c1C2=O` [compound 13, chrysophanol], the zone of inhibition in assay [2] (oxytetracycline control 30 μg) came out at 15 mm; in assay [3] (oxytetracycline control 30 μg), 10 mm; in assay [5], 11 mm. The IC50 in assay [1] (setting [7]) was greater than 1000 µM.

Consider `Nc1ncnc2c1ncn2[C@@H]1O[C@H](CO)C[C@H]1O` [compound 17, cordycepin], for which the zone of inhibition in assay [2] (oxytetracycline control 30 μg) turned out to be 16 mm; in assay [3] (oxytetracycline control 30 μg), 11 mm; in assay [4] (setting [8]) it was 9 mm; in assay [5] it was 14 mm. The IC50 in assay [1] (setting [7]) was 22.3 µM and 22.4 µM; in assay [6] it was greater than 1000 µM.

In the case of `Nc1ncnc2c1ncn2C1OC(CO)C(O)C1O` (stereo not shown) [compound 18, ara-A], the zone of inhibition in assay [2] (oxytetracycline control 30 μg) stood at 10 mm; in assay [3] (oxytetracycline control 30 μg), 12 mm; in assay [4] (setting [8]), 12 mm. Also, the IC50 came to 24.5 µM in assay [1] (setting [7]) and 138 ± 2.49 µM in assay [6].

For `OCc1ccc(-c2nccc3c2[nH]c2ccccc23)o1` [compound 16, perlolyrin], the zone of inhibition in assay [2] (oxytetracycline control 30 μg) was determined as 14 mm; in assay [3] (oxytetracycline control 30 μg) it was 9 mm; in assay [4] (setting [8]) it was 8 mm; in assay [5] it was 10 mm. For the same molecule, the IC50 is 37.8 µM and 37.9 µM in assay [1] (setting [7]); greater than 1000 µM in assay [6].

In the case of `CC[C@@H](CC[C@@H](C)C1CCC2C3CC=C4C[C@@H](O[C@@H]5O[C@H](CO)[C@@H](O)[C@H](O)[C@H]5O)CC[C@]4(C)C3CC[C@@]21C)C(C)C` (stereo partly drawn) [compound 9, β-sitosterol 3-O-β-glucoside], the zone of inhibition in assay [2] (oxytetracycline control 30 μg) came to 9 mm; in assay [3] (oxytetracycline control 30 μg), 14 mm; in assay [4] (setting [8]), 11 mm; in assay [5] it was 10 mm. Besides, the “Inhibition of HCV PR (in words)” value in assay [1] is “inactive”. In addition, the 50% inhibitory concentration (IC50) in assay [1] (setting [7]) was found to be 76.6 ± 3.78 µM.

`CCO[C@@H]1O[C@H](CO)[C@@H](O)[C@H](O)[C@H]1O` [compound 19, ethyl-O-β-glucoside]: in assay [1] (setting [7]), the concentration for half-maximal inhibition (IC50) was greater than 1000 µM.

Take `CN(C)[C@@H]1C(O)=C(C(N)=O)C(=O)[C@@]2(O)C(O)=C3C(=O)c4c(O)cccc4[C@@](C)(O)[C@H]3[C@H](O)[C@@H]12` [Oxytetracycline, reference compound]: the zone of inhibition in assay [2] (oxytetracycline control 30 μg) was 17 mm; in assay [3] (oxytetracycline control 30 μg), 20 mm; in assay [4] (setting [8]), 18 mm.

For `CC1=C(O)C(=O)C(Cl)=C(O)C1=O` [compound 11, 5-Chloro-3,6-dihydroxy-2-methyl-1,4-benzoquinone], the concentration for half-maximal inhibition (IC50) was determined as 35.1 µM in assay [1] (setting [7]) and 294.8 ± 2.87 µM in assay [6].

`CC(C)CC1NC(=O)C(C)NC1=O` [compound 1, cyclo-L-Ala-L-Leu]: the zone of inhibition at 30 µg/disc in assay [3] (oxytetracycline control 30 μg) amounted to 12 mm; in assay [5], 13 mm. Besides, the “Inhibition of HCV PR (in words)” value in assay [1] is “inactive”. In assay [1] (setting [7]), the concentration for half-maximal inhibition (IC50) is 58.3 ± 3.51 µM.

In the case of `COc1cc(O)c2c(=O)c3c(C)cc(O)cc3oc2c1` [compound 12, griseoxanthone C], the zone of inhibition at 30 µg/disc in assay [3] (oxytetracycline control 30 μg) was found to be 10 mm; in assay [4] (setting [8]) it was 13 mm. In addition, the IC50 was 19.8 µM and 19.9 µM in assay [1] (setting [7]); 51.3 µM in assay [6].

As to `CC(C)[C@@H]1NC(=O)[C@@H]2CCCN2C1=O` [compound 2, cyclo(L-Pro-L-Val)], the values for the zone of inhibition in assay [3] (oxytetracycline control 30 μg), in assay [4] (setting [8]) and in assay [5] were 11 mm, 18 mm and 9 mm, respectively. In addition, in assay [4], the “Sensitivity of B. subtilis (in words)” value is given as “highly sensitive”. For the same molecule, the concentration for half-maximal inhibition (IC50) in assay [1] (setting [7]) is 23.2 µM and 23.3 µM; in assay [6], 54.2 ± 1.88 µM.

For the molecule `CC(C)CC1NC(=O)C2CCCN2C(=O)C(Cc2ccccc2)NC(=O)C2CCCN2C1=O` (stereo not drawn) [compound 5, cyclo[Phenylalanyl-Pro-Leu-Pro]] (cyclo(FPLP); configuration not given here), the zone of inhibition in assay [2] (oxytetracycline control 30 μg) was 9 mm; in assay [3] (oxytetracycline control 30 μg), 10 mm; in assay [5], 12 mm. Besides, the IC50 in assay [1] (setting [7]) was 29.4 µM and 29.5 µM; in assay [6], 226 ± 4.26 µM.

For `O=C1N[C@H](Cc2ccc(O)cc2)C(=O)N2CCC[C@H]12` [compound 15, cyclo(L-Tyr-L-Pro)], the values for the zone of inhibition at 30 µg/disc in assay [2] (oxytetracycline control 30 μg), in assay [3] (oxytetracycline control 30 μg) and in assay [5] were 11 mm, 8 mm and 13 mm, respectively. Also, the concentration for half-maximal inhibition (IC50) was 18.2 ± 1.7 µM in assay [1] (setting [7]) and 37.9 ± 3.8 µM in assay [6].

Take `CC(C=CC=C(C)C(O)C(C)C1CC(O)C(C)=CC=CC(C)C2CC(CC=CC(=O)O1)CC(=O)O2)=Cc1coc(C)n1` (stereo not shown) [compound 6, 17-demethyl-2,11-dideoxy-rhizoxin]: the values for the zone of inhibition in assay [2], in assay [3] and in assay [5] were 12 mm, 8 mm and 19 mm, respectively. The IC50 in assay [1] (IC50 HCV Protease Inhibitory Activity) is 34.4 µM; in assay [6], 145 ± 3.66 µM.

B1: T-I: soybean trypsin-chymotrypsin inhibitor (positive control for trypsin) (protein)
chain: DDESSKPCCDQCACTKSNPPQCRCSDMRLNSCHSACKSCICALSYPAQCFCVDITDFCYEPCKPSEDDKEN
modifications: mature limits and check
On to B1, for which the IC50 in assay [6] is 0.5 µM.

Usually IC50 stands for the concentration needed to halve the response being measured.
